This note sets out measurements from patent US20050220779A1, “Integrin linked kinase modulation of macrophage activation” (priority 2001, published 2005).

Data set [1] deals with BALB/c cells (primary peritoneal macrophages). As to the kind of experiment: LPS-IFN-γ-induced macrophage NO production (Griess nitrite assay), BALB/c cells. It is filed as cell-based, mouse. As to conditions: 50 μM, 24 h; for NO release (%): relative to DMSO treated cells; for inhibition at 50 µM: Mus musculus, Peritoneal macrophage. The procedure: Isolation of primary mouse macrophages. Peritoneal exudate macrophages were isolated by peritoneal lavage with ice-cold sterile physiological saline 24 h after intraperitoneal injection of BALB/c and CB57BL/6 mice with 0.3 ml of sterile Zymosan A (1 mg/0.5 ml 0.9% saline). Cells were washed, resuspended in RPMI 1640 supplemented with 2 mM L-glutamine, 100 units/ml penicillin, 100 μg/ml streptomycin, and 5% FBS.
(§1) Treatment of primary macrophages and RAW 264.7 cells. Primary macrophages (1.5×10^5 cells/well) and RAW 264.7 (4×10^4 cells/well) cells were grown in 96-well plates (nitrite assay), or 6-well plates (2×10^6 cells/well) for measurement of iNOS and COX-2 expression. Following 3 h incubation, at 37 C, 5% CO2 (macrophages were allowed to attach) cells were stimulated with LPS (0.5 μg/ml) and IFN-γ (100 U/ml) in the absence or presence of various concentrations of ILK inhibitors (all treatments were replicated six times). Cells were incubated for an additional 24 h, and cell free culture supernatants from each well were collected for NO and cytokine determination. The remaining cells were stained with crystal violet to determine effect of the inhibitors on cell survival.
NO production. Following stimulation, the production of NO was determined by assaying culture supernatants for NO2^−, a stable reaction product of NO with molecular oxygen. Briefly, 100 μl of culture supernatant was reacted with an equal volume of Griess reagent at room temperature for 10 min. The absorbance at 550 nm was determined. All measurements were performed six times. The concentration of NO2^−was calculated by comparison with a standard curve prepared using NaNO2.
Effects of ILK inhibitors on LPS-IFN-γ-induced NO release. […] […] To compare the effect of the compounds across three different cell types, the NO release for each cell type was expressed relative to DMSO treated cells. […] For example, macrophages from Balb/c and C57BL/6 mice responded similarly to the treatment with the compounds.
(Griess reagent forms a coloured azo dye with nitrite.)

The test system is the same in data set [2]. As to the kind of experiment: Cell survival by crystal violet staining, BALB/c cells. The class given is cell-based. As to conditions: 50 μM, 24 h. The procedure:
(§2) Treatment of primary macrophages and RAW 264.7 cells. […] Following 3 h incubation, at 37 C, 5% CO2 (macrophages were allowed to attach) cells were stimulated with LPS (0.5 μg/ml) and IFN-γ (100 U/ml) in the absence or presence of various concentrations of ILK inhibitors (all treatments were replicated six times). Cells were incubated for an additional 24 h, and cell free culture supernatants from each well were collected for NO and cytokine determination. The remaining cells were stained with crystal violet to determine effect of the inhibitors on cell survival.
(§3) Effect of ILK Inhibitors on suppression of NO production and cell survival. Twenty-four hours following treatment with the ILK inhibitors, aliquots from the cell-free supernatants were assayed for NO and IL-6 release. Surviving cells were stained and fixed (crystal violet 0.05% in 20% ethanol), to determine if the decrease in NO production was related to a decrease in cell number due to toxicity of the compounds.

Data set [3] has as its system C57BL/6 cells (primary peritoneal macrophages). As to the kind of experiment: Cell survival by crystal violet staining, C57BL/6 cells. Particulars: 50 μM, 24 h, DMSO-treated = 100%. It is filed as cell-based. As to the method: as §2, §3
The test system of data set [4] is RAW 264.7 cells. As to the kind of experiment: Cell survival by crystal violet staining, RAW 264.7 cells. The class given is cell-based. As to conditions: 50 μM, 24 h, DMSO-treated = 100%. The procedure:
as §1
Effect of ILK Inhibitors on suppression of NO production and cell survival. Twenty-four hours following treatment with the ILK inhibitors, aliquots from the cell-free supernatants were assayed for NO and IL-6 release. Surviving cells were stained and fixed (crystal violet 0.05% in 20% ethanol), to determine if the decrease in NO production was related to a decrease in cell number due to toxicity of the compounds. […] Only those compounds that induced strong inhibition of NO release, and caused no significant cell death were selected for further evaluation.

The subject of data set [5] is iNOS. As to the kind of experiment: iNOS protein expression in LPS-IFN-γ stimulated macrophages (western blot). The class given is cell-based, murine. Particulars: LPS-IFN-γ stimulated macrophages, western blot. As to the method:
(§4) Western blot analysis. After incubation with the indicated stimuli in the presence of ILK inhibitors, cells (duplicate samples, 2×10^6cell/6-wells plate) were washed in PBS and lysed on ice in 60 μl of lysis buffer. The protein content of each sample was determined using the Bradford protein assay kit (Bio-Rad, Richmond, Calif.). Absorbance was measured at 750 nm with a Beckman DU530 spectrophotometer (Palo Alto, Calif.). Proteins were mixed with […] sample buffer. Following separation of proteins by SDS-PAGE, using 8% bis-acrylamide in the separation gel, the proteins were transferred from the gels onto PVDF membranes using a MiniProtean III Cell (Bio-Rad), at 100 V for 1.5 h. Equal amounts of protein (5 μg) were loaded onto SDS-PAGE gels and examined by Western blot analysis with anti-Actin, anti-iNOS, anti-COX-2 murine monoclonal antibodies according to the manufacturers specifications (Transduction Laboratories). Primary Abs, in 5% blocking buffer (5% NFM/TTBS), were incubated with blots 2 h or overnight at 4° C., followed by incubation with peroxidase-conjugated secondary antibody. Chemiluminescence substrates were used to reveal positive bands. The bands were exposed on x-ray films. […] The Multi-Analyst/PC system from Biorad is being used to quantitate the bands of the expressed protein on the film. […] White light is chosen as the selected light source, thus the signal strength is measured in OD (optic density) units. […]
(§5) Effects of ILK inhibitors on the LPS-IFN-γ-induced iNOS and COX-2 expression NO production requires that iNOS be enzymatically activity, therefore experiments were performed to examine whether the inhibitory effect of ILK inhibitors was mediated by […] iNOS protein synthesis or effects on the activity of existing enzyme. Stimulated cells were treated with ILK inhibitors (25 μM), and lysed 16 h later and a western blot analysis was performed to quantitate iNOS protein expression. […]
On the technique in general: A western blot detects proteins with antibodies after separation by electrophoresis.

Data set [6] deals with COX-2. As to the kind of experiment: COX-2 protein expression in LPS-IFN-γ stimulated macrophages (western blot). The class given is cell-based, murine. As to conditions: LPS-IFN-γ stimulated macrophages, western blot. The procedure:
as §4, with “Laboratories).” for “Laboratories). Primary Abs, in 5% blocking buffer (5% NFM/TTBS), were incubated with blots 2 h or overnight at 4° C., followed by incubation with peroxidase-conjugated secondary antibody. Chemiluminescence substrates were used to reveal positive bands. The bands were exposed on x-ray films.”
as §5
Nitric oxide and Prostaglandin E2 are two pleiotropic mediators produced at inflammatory sites by the inducible enzymes iNOS and cyclooxygenase-2 (COX-2), respectively. […] Finally, we evaluated the in-vitro effects of compounds on production of MCP-1 chemokine by TNF-α stimulated HUVEC cells. […]

Structures are written as SMILES.

The inhibition is the change of the read-out against control, counted positive when it falls. On to `Oc1ccc2c(c1)CC1NCCc3cc(O)c(O)c-2c31` (centres unmarked) [KP-21849, 5,6,6a,7-Tetrahydro-4H-dibenzo[de,g]quinoline-1,2,9-triol], for which the “NO release (%)” value in data set [1] is −4.2%. Further, the inhibition at 50 µM in data set [1] was found to be 110%. In addition, the “Survival (%)” value in data set [2] (BALB/c cells, DMSO-treated = 100%) is recorded as 41%; in data set [3], 44%; in data set [4] it was 51%. Also, the “iNOS protein expression (in words)” value in data set [5] is listed as “significantly inhibited the expression of iNOS protein”. Moreover, the “COX-2 protein expression (in words)” value in data set [6] is on record as “significant decrease of COX-2 protein expression”.
As to `N=C(N)N/N=C/c1ccc(Cl)cc1Cl` [KP-16735], the “NO release (%)” value in data set [1] is −4.2%. Also, in data set [1], the inhibition at 50 µM is 106%. Further, the “Survival (%)” value in data set [2] (BALB/c, mouse) was determined as 73%; in data set [3], 49%; in data set [4] it was 51%. Moreover, the “iNOS protein expression (in words)” value in data set [5] is “significantly inhibited the expression of iNOS protein”. Also, in data set [6], the “COX-2 protein expression (in words)” value is on record as “significant decrease of COX-2 protein expression”.
